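Where inhibition never reached the appropriate level, the endpoint shown equals the highest concentration tested. Otherwise, values were interpolated linearly from a five-concentration, 48-hour dose response in 96-well plates. At the GI50, growth is halved.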 The source made the active and inactive calls. Cut-off read from the data, not from the text of the source: active = GI50 up to about 1.1 µM and inactive = higher.
Tests used:
Experiment in all cases: NCI anticancer screen, dose series, 48 h
RPMI-8226 = system: RPMI-8226
OVCAR-5 = system: OVCAR-5
SF-268 = system: SF-268
SW-620 = system: SW-620
HOP-62 = system: HOP-62
IGROV-1 = system: IGROV-1
OVCAR-8 = system: OVCAR-8
UACC-62 = system: UACC-62
CCRF-CEM = system: CCRF-CEM
NCI-H460 = system: NCI-H460
UACC-257 = system: UACC-257
HCC 2998 = system: HCC 2998
SK-MEL-5 = system: SK-MEL-5
SK-MEL-28 = system: SK-MEL-28
LOX IMVI = system: LOX IMVI
U-251 = system: U-251
COLO 205 = system: COLO 205
Malme-3M = system: Malme-3M
OVCAR-3 = system: OVCAR-3
HT-29 = system: HT-29

Row | SMILES | GI50 (RPMI-8226) | GI50 (OVCAR-5) | GI50 (SF-268) | GI50 (SW-620) | GI50 (HOP-62) | GI50 (IGROV-1) | GI50 (OVCAR-8) | GI50 (UACC-62) | GI50 (CCRF-CEM) | GI50 (NCI-H460) | GI50 (UACC-257) | GI50 (HCC 2998) | GI50 (SK-MEL-5) | GI50 (SK-MEL-28) | GI50 (LOX IMVI) | GI50 (U-251) | GI50 (COLO 205) | GI50 (Malme-3M) | GI50 (OVCAR-3) | GI50 (HT-29)
1 | O=[N+]([O-])c1ccc(C2=Nc3ccccc3SC(c3ccccc3)C2)cc1 (stereo unspecified) | 14.8 µM (inactive) | 19.5 µM (inactive) | 24.7 µM (inactive) | 14.5 µM (inactive) | 20.7 µM (inactive) | 16 µM (inactive) | 20.8 µM (inactive) | 13.7 µM (inactive) | 14.7 µM (inactive) | 20.6 µM (inactive) | 26.2 µM (inactive) | 15.2 µM (inactive) | 18.1 µM (inactive) | 21.3 µM (inactive) | 13.7 µM (inactive) | 13.1 µM (inactive) | 17.5 µM (inactive) | – | – | –
2 | CN1C2CCC1CC(C)(O)C2 (stereo unspecified) | > 100 µM (inactive) | – | > 100 µM (inactive) | > 100 µM (inactive) | > 100 µM (inactive) | – | > 100 µM (inactive) | – | > 100 µM (inactive) | > 100 µM (inactive) | > 100 µM (inactive) | > 100 µM (inactive) | – | > 100 µM (inactive) | > 100 µM (inactive) | > 100 µM (inactive) | > 100 µM (inactive) | > 100 µM (inactive) | > 100 µM (inactive) | > 100 µM (inactive)
3 | O=C(c1ccco1)C1CC(c2c(O)ccc3ccccc23)=NN1 (stereo unspecified) | 13.6 µM (inactive) | 14.9 µM (inactive) | 10.1 µM (inactive) | 11.8 µM (inactive) | 13.8 µM (inactive) | 13.3 µM (inactive) | 18.3 µM (inactive) | 12.6 µM (inactive) | 9.71 µM (inactive) | 7.85 µM (inactive) | 20.6 µM (inactive) | 12.1 µM (inactive) | 13.9 µM (inactive) | 21 µM (inactive) | – | 14.7 µM (inactive) | 6.37 µM (inactive) | 16 µM (inactive) | 12.2 µM (inactive) | 11.8 µM (inactive)
4 | COC(=O)c1ccc(/C=C2\N=C(C)OC2=O)cc1 | > 100 µM (inactive) | > 100 µM (inactive) | > 100 µM (inactive) | > 100 µM (inactive) | > 100 µM (inactive) | > 100 µM (inactive) | > 100 µM (inactive) | > 100 µM (inactive) | > 100 µM (inactive) | > 100 µM (inactive) | – | > 100 µM (inactive) | > 100 µM (inactive) | > 100 µM (inactive) | > 100 µM (inactive) | > 100 µM (inactive) | > 100 µM (inactive) | – | > 100 µM (inactive) | > 100 µM (inactive)
5 | COC(=O)C1(Cc2ccccc2)Cc2cc3c(cc2C1)CCC3 | 15.4 µM (inactive) | 27.7 µM (inactive) | 41.4 µM (inactive) | 36.1 µM (inactive) | 50.2 µM (inactive) | 24.5 µM (inactive) | 25.3 µM (inactive) | 29.8 µM (inactive) | 14.9 µM (inactive) | 33.3 µM (inactive) | 29.2 µM (inactive) | 34.1 µM (inactive) | 17.2 µM (inactive) | 41.1 µM (inactive) | 18.6 µM (inactive) | 22.4 µM (inactive) | 16.7 µM (inactive) | 22.3 µM (inactive) | 33.7 µM (inactive) | 10.5 µM (inactive)
6 | Nc1n[nH]c(CCCCCCCc2nnc(N)[nH]2)n1 | > 100 µM (inactive) | > 100 µM (inactive) | > 100 µM (inactive) | – | > 100 µM (inactive) | – | – | > 100 µM (inactive) | > 100 µM (inactive) | > 100 µM (inactive) | > 100 µM (inactive) | > 100 µM (inactive) | – | > 100 µM (inactive) | > 100 µM (inactive) | > 100 µM (inactive) | – | > 100 µM (inactive) | > 100 µM (inactive) | > 100 µM (inactive)
7 | N=c1c2c(=S)n(-c3ccccc3)c(=S)n(-c3ccccc3)c2nc(SCCCN2CCN(c3cccc(Cl)c3)CC2)n1-c1ccccc1 | > 100 µM (inactive) | 26.4 µM (inactive) | – | > 100 µM (inactive) | 44.7 µM (inactive) | 97.7 µM (inactive) | > 100 µM (inactive) | 49.2 µM (inactive) | > 100 µM (inactive) | > 100 µM (inactive) | > 100 µM (inactive) | > 100 µM (inactive) | 92.7 µM (inactive) | > 100 µM (inactive) | 26.5 µM (inactive) | > 100 µM (inactive) | > 100 µM (inactive) | > 100 µM (inactive) | > 100 µM (inactive) | –
8 | COc1ccc(/C(Cl)=C(\C=O)c2ccc(OC)cc2)cc1 | 37.9 µM (inactive) | > 100 µM (inactive) | > 100 µM (inactive) | > 100 µM (inactive) | > 100 µM (inactive) | > 100 µM (inactive) | 59.4 µM (inactive) | > 100 µM (inactive) | 22.2 µM (inactive) | 31.5 µM (inactive) | 72.4 µM (inactive) | > 100 µM (inactive) | > 100 µM (inactive) | – | 80 µM (inactive) | 70.8 µM (inactive) | – | > 100 µM (inactive) | 64.9 µM (inactive) | > 100 µM (inactive)
9 | COc1cccc(NC(=O)CC(=O)n2nc(-c3ccccc3)c(/N=N/c3ccc(Cl)cc3)c2-c2ccccc2)c1 | 12 µM (inactive) | 64.9 µM (inactive) | 11.6 µM (inactive) | 36.1 µM (inactive) | 15.2 µM (inactive) | 7.55 µM (inactive) | 15.8 µM (inactive) | 14.2 µM (inactive) | 6.92 µM (inactive) | 10.5 µM (inactive) | 24.3 µM (inactive) | 17.2 µM (inactive) | 16.8 µM (inactive) | 25.5 µM (inactive) | 13.2 µM (inactive) | 7.87 µM (inactive) | 23 µM (inactive) | 13.7 µM (inactive) | 22.1 µM (inactive) | 19.6 µM (inactive)
10 | CN(C)C(=O)C1CCC(=C2C(=O)OC(C)(C)OC2=O)N1C (stereo unspecified) | – | > 100 µM (inactive) | > 100 µM (inactive) | > 100 µM (inactive) | > 100 µM (inactive) | > 100 µM (inactive) | > 100 µM (inactive) | > 100 µM (inactive) | > 100 µM (inactive) | > 100 µM (inactive) | > 100 µM (inactive) | > 100 µM (inactive) | > 100 µM (inactive) | > 100 µM (inactive) | > 100 µM (inactive) | > 100 µM (inactive) | > 100 µM (inactive) | > 100 µM (inactive) | > 100 µM (inactive) | > 100 µM (inactive)
11 | COC(=O)[C@@H](NC(=O)[C@H](N)Cc1ccc(N(CCCl)CCCl)cc1)C(C)C | 5.3 µM (inactive) | 36.5 µM (inactive) | 10.6 µM (inactive) | 11 µM (inactive) | 19.9 µM (inactive) | 15.9 µM (inactive) | 7.06 µM (inactive) | 2.39 µM (inactive) | 0.435 µM (active) | 10.1 µM (inactive) | 6.37 µM (inactive) | 5.55 µM (inactive) | 1.78 µM (inactive) | 11.9 µM (inactive) | 5.97 µM (inactive) | 19.4 µM (inactive) | 16.9 µM (inactive) | 1.92 µM (inactive) | 6.38 µM (inactive) | 24.6 µM (inactive)
12 | CN(N)c1nc(N)c(C#N)c(C#N)c1C#N | > 10 µM (inactive) | > 10 µM (inactive) | > 10 µM (inactive) | > 10 µM (inactive) | > 10 µM (inactive) | > 10 µM (inactive) | > 10 µM (inactive) | > 10 µM (inactive) | > 10 µM (inactive) | – | > 10 µM (inactive) | > 10 µM (inactive) | > 10 µM (inactive) | > 10 µM (inactive) | > 10 µM (inactive) | > 10 µM (inactive) | > 10 µM (inactive) | > 10 µM (inactive) | > 10 µM (inactive) | > 10 µM (inactive)
13 | C[Si](C)(C)OC1(C#N)c2ccccc2CCCC12CCCC2 (stereo unspecified) | 21.6 µM (inactive) | > 100 µM (inactive) | 57.4 µM (inactive) | 44.9 µM (inactive) | 67.9 µM (inactive) | 43.3 µM (inactive) | 50.9 µM (inactive) | 80.2 µM (inactive) | 19.6 µM (inactive) | 37.6 µM (inactive) | 21.4 µM (inactive) | 16.4 µM (inactive) | 24.1 µM (inactive) | 44.5 µM (inactive) | 22 µM (inactive) | 29.4 µM (inactive) | 37.1 µM (inactive) | 39.4 µM (inactive) | 46 µM (inactive) | 27.8 µM (inactive)
14 | Nc1cc(S(=O)(=O)O)cc2cc(S(=O)(=O)O)c(/N=N/c3ccc(-c4ccc(/N=N/c5c(S(=O)(=O)O)cc6cc(S(=O)(=O)O)cc(N)c6c5O)cc4)cc3)c(O)c12 | > 100 µM (inactive) | > 100 µM (inactive) | > 100 µM (inactive) | > 100 µM (inactive) | > 100 µM (inactive) | > 100 µM (inactive) | > 100 µM (inactive) | – | > 100 µM (inactive) | > 100 µM (inactive) | > 100 µM (inactive) | > 100 µM (inactive) | > 100 µM (inactive) | > 100 µM (inactive) | > 100 µM (inactive) | > 100 µM (inactive) | > 100 µM (inactive) | > 100 µM (inactive) | > 100 µM (inactive) | > 100 µM (inactive)
15 | CCc1ccc(Nc2cc(=O)[nH]c(=S)n2C)cc1 | > 100 µM (inactive) | > 100 µM (inactive) | > 100 µM (inactive) | > 100 µM (inactive) | > 100 µM (inactive) | > 100 µM (inactive) | > 100 µM (inactive) | > 100 µM (inactive) | > 100 µM (inactive) | > 100 µM (inactive) | > 100 µM (inactive) | – | > 100 µM (inactive) | – | > 100 µM (inactive) | > 100 µM (inactive) | > 100 µM (inactive) | > 100 µM (inactive) | > 100 µM (inactive) | > 100 µM (inactive)

Reference: ChEMBL document CHEMBL1201862, “PubChem BioAssay data set” (2004)
